From US20130225641A1, “ANTICANCER COMPOUNDS AND PREPARATION METHODS THEREOF” (priority 2010, published 2013) come the findings set out here.

The subject of one test is EC109. The test can be described thus: MTT cytotoxicity, EC109. The test is classed as cell-based. The settings on record: Homo sapiens, ECa-109, EC109, Esophageal, 72 hrs, read-out: LC50 (the source's name). As for the experimental part: (§1) The cytotoxicity of ZTP and ZTQ was analyzed by using human tumor cell lines. Human tumor cell lines were purchased from ATCC and NCI, and cultured in DMEM medium containing 10% FBS at 37° C. in 5% CO2 in an incubator. The cells grown to confluence were used for cytotoxicity analysis. The cells were digested with trypsin, washed with the culture medium, and then counted. 33 tumor cell lines were cultured. The cells were seeded at a density of 3000-6000 cells/well in a 96-well plate and incubated for 16-24 hrs. Then, various concentrations of ZTP or ZTQ dissolved in DMSO were added, and cultured for 72 hrs. The drug-treated cells and control cells were analyzed by MTT.

For test [1], the system named is human lung cancer cells (NCI-H23). As to the kind of experiment: Transplantation model of human lung cancer (NCI-H23) in nude mice. In kind it is in vivo, nude mice (nu/nu). The settings on record: NCI-H23 subcutaneous in nude mice; oral daily 5 days/week, 3 weeks; ZTP 30 mg/kg, ZTQ 60 mg/kg; lower = stronger. As for the experimental part: (§2) T-cell deficient nude mice (nu/nu) of 6 weeks old were purchased from Charles River Laboratory, and housed and treated in a sterile environment following Institutional Animal Care & Use Committee Program. 48 mice were respectively subcutaneously inoculated on ribbed belly with 5×10^6 human liver cancer cells (HepG3B), human lung caner cells (NCI-H23), and human colon cancer cells (HCT-116) suspended in 0.2 ml HBSS/matrigel (50:50, V/V). When the tumor grew to have an average diameter of 7-8 mm and a volume of about 100-200 mm^3, 24 mice were picked up, and assigned to treatment groups (16 animals/2 groups), and a control group (8 animals). The 2 treatment groups were administered with the compounds ZTP and ZTQ dissolved in 15% Captsol respectively at a dose of 30 mg/kg and 60 mg/kg, and the control group only received an excipient (15% Captsol).
(§3) The same number of mice of each type was assigned to the control group and the treatment groups with the compounds ZTP and ZTQ respectively.
(§4) The dose schedule of the test compounds in the tumor transplanted nude mice was as follows: the compounds ZTP and ZTQ dissolved in 15% Captsol were daily orally administered as a 200 μl solution containing 0.75 mg of ZTP and 1.5 mg of ZTQ for 5 days/week over 3 consecutive weeks, followed by one-week break; and the control group was only administered with 200 μl of the placebo (15% Captsol) for 3 weeks, followed by 1 week of break. The two groups of animals were housed separately, and allowed to free access to food.
(§5) Evaluation of antitumor effect: the tumor size was measured every 3 or 4 days. The tumor volume was calculated using the equation below: […], in which a denotes the width (the shorter diameter), and b denotes the length (the longer diameter). Relative tumor volume (RTV) of each tumor refers to the ratio of the volume at a specified time to that at the beginning of the treatment. The average RTV for each treatment group was calculated. The antitumor activity was determined by calculating the tumor growth inhibition using a formula below. […]

For a further test, the system named is AU-565. The test can be described thus: MTT cytotoxicity, AU-565. In kind it is cell-based. The settings on record: Homo sapiens, AU565, AU-565, Breast, 72 hrs, read-out: LC50 (the source's name). As for the experimental part: as §1
For a further test, the system named is D145. The test can be described thus: MTT cytotoxicity, D145. The settings on record: Homo sapiens, D145, Prostatic, 72 hrs, read-out: LC50 (the source's name). In kind it is cell-based. Here is the method: as §1
The subject of a further test is SK-MEL-5. The test can be described thus: MTT cytotoxicity, SK-MEL-5. In kind it is cell-based. The following applies: Homo sapiens, SK-MEL-5, Skin (melanoma), 72 hrs, read-out: LC50 (the source's name). As for the experimental part:
as §1

The test system of the next test is MDA-MB-435. The test can be described thus: MTT cytotoxicity, MDA-MB-435. The following applies: Homo sapiens, MDA-MB-435, Breast, 72 hrs, read-out: LC50 (the source's name). In kind it is cell-based. Here is the method:
as §1

Another test has as its system SKOV3. As to the kind of experiment: MTT cytotoxicity, SKOV3. The settings on record: Homo sapiens, SK-OV-3, SKOV3, Ovarian, 72 hrs, read-out: LC50 (the source's name). The test is classed as cell-based. As for the experimental part: as §1
The next test concerns G-361. The test can be described thus: MTT cytotoxicity, G-361. The test is classed as cell-based. The settings on record: Homo sapiens, G-361, Skin (melanoma), 72 hrs, read-out: LC50 (the source's name). As for the experimental part:
as §1

For the next test, the system named is SGC-7901. As to the kind of experiment: MTT cytotoxicity, SGC-7901. In kind it is cell-based. The settings on record: Homo sapiens, SGC-7901, Gastric, 72 hrs, read-out: LC50 (the source's name). As for the experimental part: as §1
The next test relates to Mid PaCa-2. The test can be described thus: MTT cytotoxicity, Mid PaCa-2. In kind it is cell-based. The following applies: Homo sapiens, Mid PaCa-2, Pancreatic, 72 hrs, read-out: LC50 (the source's name). Here is the method: as §1
The subject of a further test is Widr. As to the kind of experiment: MTT cytotoxicity, Widr. The test is classed as cell-based. The following applies: Homo sapiens, Colonic, 72 hrs, read-out: LC50 (the source's name). Here is the method: as §1
A further test deals with MCF-7. As to the kind of experiment: MTT cytotoxicity, MCF-7. In kind it is cell-based. The settings on record: Homo sapiens, MCF7, MCF-7, Breast, 72 hrs, read-out: LC50 (the source's name). Here is the method: as §1
Test [2] deals with human colon cancer cells (HCT-116). The test can be described thus: Transplantation model of human colon cancer (HCT-116) in nude mice. The test is classed as in vivo, nude mice (nu/nu). The settings on record: HCT-116 subcutaneous in nude mice; oral daily 5 days/week, 3 weeks; ZTP 30 mg/kg, ZTQ 60 mg/kg; lower = stronger. Here is the method: as §2, §3, §4, §5
Another test has as its system CNE-2Z. The test can be described thus: MTT cytotoxicity, CNE-2Z. In kind it is cell-based. The following applies: Homo sapiens, CNE2Z, Nasopharyngeal, 72 hrs, read-out: LC50 (the source's name). Here is the method: as §1
The subject of a further test is LoVo. As to the kind of experiment: MTT cytotoxicity, LoVo. The test is classed as cell-based. The following applies: Homo sapiens, Colonic, 72 hrs, read-out: LC50 (the source's name). Here is the method: as §1
The test system of a further test is A549. As to the kind of experiment: MTT cytotoxicity, A549. The test is classed as cell-based. The settings on record: Homo sapiens, A549, Lung, 72 hrs, read-out: LC50 (the source's name). Here is the method: as §1
A further test concerns HepG3B. The test can be described thus: MTT cytotoxicity, HepG3B. In kind it is cell-based. The settings on record: Homo sapiens, Liver, 72 hrs, read-out: LC50 (the source's name). As for the experimental part:
as §1

A further test concerns 786-O. The test can be described thus: MTT cytotoxicity, 786-O. The settings on record: Homo sapiens, 786-0, Renal, 72 hrs, read-out: LC50 (the source's name). The test is classed as cell-based. As for the experimental part: as §1
For a further test, the system named is IGROV1. As to the kind of experiment: MTT cytotoxicity, IGROV1. In kind it is cell-based. The settings on record: Homo sapiens, IGROV-1, IGROV1, Ovarian, 72 hrs, read-out: LC50 (the source's name). As for the experimental part:
as §1

As to `CNC(=O)c1cc(Oc2ccc(NC(=S)Nc3ccc(Cl)c(C(F)(F)F)c3)cc2)ccn1` [ZTP, N-[4-chloro-3-(trifluoromethyl)phenyl]-[4-(N-methyl-formamide)(4-pyridyloxy)phenyl]-thiourea], the CC50 in the test with EC109 worked out at 1480 nM; with AU-565, 1890 nM; in the test with D145, 1590 nM; in the test on SK-MEL-5 it was 1990 nM; with MDA-MB-435 it was 1370 nM; in the test on SKOV3, 1190 nM. Further, the CC50 in the test on G-361 amounted to 1910 nM; in the test with SGC-7901, 1310 nM; in the test with Mid PaCa-2, 1250 nM; with Widr it was 950 nM; in the test with MCF-7, 2210 nM; in the test with CNE-2Z, 1890 nM. Also, the CC50 in the test with LoVo was found to be 1310 nM; in the test on A549 it was 1220 nM; with HepG3B, 1710 nM; in the test with 786-O it was 1750 nM; with IGROV1, 920 nM. The “TGI (T/C×100)” value in test [1] came out at 10%; in test [2], 29.2%.

For the compound `CNC(=O)c1cc(Sc2ccc(NC(=S)Nc3ccc(Cl)c(C(F)(F)F)c3)cc2)ccn1` [ZTQ, N-[4-chloro-3-(trifluoromethyl)phenyl]-[4-(N-methyl-formamide)(4-pyridylthio)phenyl]-thiourea], the CC50 in the test with EC109 amounted to 1120 nM; with AU-565, 1370 nM; in the test on D145, 1230 nM; with SK-MEL-5, 1540 nM; in the test with MDA-MB-435 it was 1120 nM; in the test on SKOV3, 980 nM. Besides, the CC50 was determined as 1360 nM in the test on G-361; 1030 nM in the test on SGC-7901; 910 nM with Mid PaCa-2; 810 nM in the test on Widr; 1700 nM in the test on MCF-7; 1310 nM in the test with CNE-2Z. The CC50 turned out to be 1100 nM in the test with LoVo; 1010 nM in the test with A549; 1230 nM in the test on HepG3B; 1260 nM with 786-O; 730 nM in the test with IGROV1. Further, the results for the “TGI (T/C×100)” value in [1] and in test [2] were 9.21% and 6.45%, respectively.
